{"source": "patent US20030092637A1", "about": "“Novel compounds” (priority 2000, published 2003)", "test_system": "transformed human vascular endothelial cells (ECV cells)", "experiment": "Cellular growth assay (crystal violet), ECV cells", "format": "cell-based", "procedure": "Human embryonic lung fibroblasts (HFL-1 cells) and transformed endothelial cells (ECV cells) were obtained. Monolayer cultures were maintained on plastic in Eagle's MEM (Life Technologies, Ltd, Renfrewshire, UK). The medium was supplemented with 10% FCS (In Vitro AB, Stockholm, Sweden), 2 mM L-glutamine (ICN Biochemicals), penicillin (100 units/ml) and streptomycin (100 μg/ml) Cells were regularly checked for mycoplasma using GEN-PROBE Rapid detection system (Skafte & Claesson, Mölndal, Sweden).\nIn brief, cells were harvested by trypsinisation and seeded into 96-well microculture plates at 3000-5000 cells/well in Ham's F-12 medium (Sigma) supplemented with insulin (10 ng/ml), transferrin (25 ng/ml) and 10% FCS. After 4 h of plating, the cells were serum-starved for 24 h. […] Controls without growth factor and controls with different concentrations of DMSO were included. After 72, 96 and 120 h of growth, cells were fixed in glutaraldehyde, and cell nuclei were stained with crystal violet (Merck, Darmstadt, Germany). After washing and cell lysis for 24 h in 1% Triton X-100, the amount of bound dye was measured at 595 nm in a microplate photometer (Titertek multiscan). Results were corrected for DMSO effects."}
{"smiles": "NCCC[C@](N)(C(=O)O)C(F)F", "note": "[DFMO, α-difluoromethylornithine]", "values": [{"measurement": "inhibition at 5000 µM", "setting": "Homo sapiens, Endothelial cell, 5 mM DFMO only, cells dependent on 1 μM spermin", "value": 5, "unit": "%"}]}
{"smiles": "Oc1ccc2cc(O[C@@H]3OC[C@@H](O)[C@H](O)[C@H]3O)ccc2c1", "note": "[Xyl-2-Nap-6-OH, 6-hydroxy-2-naphthalenyl-β-D-xylopyranoside]", "values": [{"measurement": "inhibition of growth of ECV cells", "setting": "0.05 mM Xyl-2-Nap-6-OH, untreated cells as reference", "value": 9, "unit": "%"}, {"measurement": "inhibition of growth of ECV cells", "setting": "Xyl-2-Nap-6-OH alone (concentration not restated; 0.2 mM in the compared combination)", "value": 31, "unit": "%"}]}
{"smiles": "Cc1ccc(C(=O)Nc2ccc(S(=O)(=O)O)c3cc(S(=O)(=O)O)cc(S(=O)(=O)O)c23)cc1NC(=O)c1cccc(NC(=O)Nc2cccc(C(=O)Nc3cc(C(=O)Nc4ccc(S(=O)(=O)O)c5cc(S(=O)(=O)O)cc(S(=O)(=O)O)c45)ccc3C)c2)c1", "note": "[suramin]", "values": [{"measurement": "inhibition at 200 µM", "setting": "Homo sapiens, Endothelial cell, 0.2 mM suramin, untreated cells as reference", "value": 20, "unit": "%"}]}
